Here are results for 3 molecules from patent US10577369B2, “Substituted quinazolinones for inhibiting PI3K” (priority 2016, dated 2020).

Like-named read-outs stand apart in the source and are kept apart here.

In one series the test system is SupB15 (ALL) cells. Nature of the series: Growth inhibition of leukemia cells (CCK-8), SupB15. In kind it is cell-based. As to conditions: Homo sapiens, read-out: LC50 SupB15 (ALL). As for the experimental part:
(§1) Cell growth-inhibiting effects on the DLBCL-derived cells and the ALL-derived cells were evaluated by measuring the absorbance of cell counting kit-8 (CCK-8) dye. During the last 3 hours of the 48 hours, […] of a CCK-8 dye was added to each plate and then cultured.
(§2) All data are expressed as the mean (±SD) of three independent experiments.

A further series concerns MOLT4 (ALL) cells. The series can be described thus: Growth inhibition of leukemia cells (CCK-8), MOLT4. Format: cell-based. The following applies: Homo sapiens, read-out: LC50 MOLT4 (ALL). As for the experimental part: as §1, §2
Another series concerns SUDHL5 (DLBCL) cells. Nature of the series: Growth inhibition of lymphoma cells (CCK-8), SUDHL5. In kind it is cell-based. As to conditions: Homo sapiens, read-out: LC50 SUDHL5 (DLBCL). As for the experimental part:
as §1, §2

The next series addresses T1, PI3K p110δ (Homo sapiens, UniProt O00329).
T1 construct: purchased Thermo Fisher Scientific Inc. (SelectScreen Services)
The series can be described thus: PI3K kinase activity test (Adapta kinase assay), p110δ. Format: biochemical. The following applies: for IC50: Adapta kinase assay; for ratio PI3Kα/PI3Kδ, as IC50 values / ratio PI3Kβ/PI3Kδ, as IC50 values / ratio of PI3Kγ/PI3Kδ: selectivity, ratio of IC50 values. As for the experimental part:
(§3) An experiment was conducted using a homogeneous, fluorescence-based immunoassay, which is Adapta kinase assay. SelectScreen™ Services available from Thermo Fisher Scientific Inc. was carried out.

For another series, the target named is T2, PI3K p110β (Homo sapiens, UniProt P42338).
T2 construct: purchased Thermo Fisher Scientific Inc. (SelectScreen Services)
The series can be described thus: PI3K kinase activity test (Adapta kinase assay), p110β. Format: biochemical. As for the experimental part:
as §3

The test system of series [1] is diffuse large B-cell lymphoma (DLBCL) and acute lymphocytic leukemia (ALL) cells. Nature of the series: Apoptosis of DLBCL and ALL cells by flow cytometry (Annexin V-FITC/PI). In kind it is cell-based. The following applies: 50 μM, 24 hours, FIG. 5. As for the experimental part:
The cells were washed with PBS, and then suspended in a binding buffer. 5 μl of an Annexin V-FITC stock solution (Becton Dickinson Science, Inc) and 5 μl of PI (20 μg/ml) were added thereto, followed by incubation at room temperature for 15 minutes with light-shielding, and then the target material was quantified on FACScan™ (Becton Dickinson) by flow cytometry.

Series [2] has the same test system. Nature of the series: Apoptosis of DLBCL and ALL cells by SDS-PAGE / immunoblotting (caspase 3, 9, PARP cleavage). In kind it is cell-based. The following applies: 50 μM, 36 hours; FIG. 4. As for the experimental part: Immunoblotting analysis was performed using antibodies of these, and glyceraldehyde-3-phosphate dehydrogenase (GAPDH) was used as a loading control.

A further series has as its target T3, PI3K p110α (Homo sapiens, UniProt P42336).
T3 construct: purchased Thermo Fisher Scientific Inc. (SelectScreen Services)
The series can be described thus: PI3K kinase activity test (Adapta kinase assay), p110α. Format: biochemical. As for the experimental part: as §3

The next series concerns the target T4, PI3K p110γ (Homo sapiens, UniProt P48736).
T4 construct: purchased Thermo Fisher Scientific Inc. (SelectScreen Services)
Nature of the series: PI3K kinase activity test (Adapta kinase assay), p110γ. In kind it is biochemical. As for the experimental part:
as §3

Series [3] concerns human umbilical vein endothelial cells (HUVECs). Nature of the series: Number of viable HUVECs treated with compound. In kind it is cell-based. As to conditions: FIG. 8.
The test system is the same in series [4]. The series can be described thus: Angiogenesis inhibition, HUVEC tube formation. Format: cell-based. As to conditions: HUVECs on basement membrane matrix, 18 hours; FIG. 7. As for the experimental part:
After 18 hours, tube formation was photographed using a Cytation™ 5 fluorescence microscope (BioTek), and the number of areas formed by branch points was counted using software (see FIG. 6).

Another series concerns rats. The series can be described thus: Single dose toxicity test in rats. Format: in vivo, rat. As to conditions: single oral dose, female rats, observed day 1 to day 2; approximate lethal dose. As for the experimental part:
The compound of Formula 7 and the compound of Formula 8 were orally administered to eight six-week-old female rats, to observe the single dose oral toxicity thereof and to obtain an approximate lethal dose. The dosage was set at 10 mL/kg, and the dosage for each rat was calculated based on body weight. Each compound was administered at doses of 100 mg/kg, 300 mg/kg, 900 mg/kg, and 1,500 mg/kg, and general symptoms were observed once a day from day 1 to day 2 after administration.

Another series concerns Phospho-Akt (Ser473). Nature of the series: AKT (Ser473) phosphorylation in leukemia and lymphoma cell lines (immunoblotting). Format: cell-based. As to conditions: 1 μM, 1 hour; SUDHL 5, SUDHL 10, CCRF-SB, MOLT4; FIG. 2. The source says:
Subsequently, cells were lysed and fractionated according to size, followed by immunoblotting with antibodies directed against Phospho-Akt (Ser473).

T1 sequence (O00329 whole entry): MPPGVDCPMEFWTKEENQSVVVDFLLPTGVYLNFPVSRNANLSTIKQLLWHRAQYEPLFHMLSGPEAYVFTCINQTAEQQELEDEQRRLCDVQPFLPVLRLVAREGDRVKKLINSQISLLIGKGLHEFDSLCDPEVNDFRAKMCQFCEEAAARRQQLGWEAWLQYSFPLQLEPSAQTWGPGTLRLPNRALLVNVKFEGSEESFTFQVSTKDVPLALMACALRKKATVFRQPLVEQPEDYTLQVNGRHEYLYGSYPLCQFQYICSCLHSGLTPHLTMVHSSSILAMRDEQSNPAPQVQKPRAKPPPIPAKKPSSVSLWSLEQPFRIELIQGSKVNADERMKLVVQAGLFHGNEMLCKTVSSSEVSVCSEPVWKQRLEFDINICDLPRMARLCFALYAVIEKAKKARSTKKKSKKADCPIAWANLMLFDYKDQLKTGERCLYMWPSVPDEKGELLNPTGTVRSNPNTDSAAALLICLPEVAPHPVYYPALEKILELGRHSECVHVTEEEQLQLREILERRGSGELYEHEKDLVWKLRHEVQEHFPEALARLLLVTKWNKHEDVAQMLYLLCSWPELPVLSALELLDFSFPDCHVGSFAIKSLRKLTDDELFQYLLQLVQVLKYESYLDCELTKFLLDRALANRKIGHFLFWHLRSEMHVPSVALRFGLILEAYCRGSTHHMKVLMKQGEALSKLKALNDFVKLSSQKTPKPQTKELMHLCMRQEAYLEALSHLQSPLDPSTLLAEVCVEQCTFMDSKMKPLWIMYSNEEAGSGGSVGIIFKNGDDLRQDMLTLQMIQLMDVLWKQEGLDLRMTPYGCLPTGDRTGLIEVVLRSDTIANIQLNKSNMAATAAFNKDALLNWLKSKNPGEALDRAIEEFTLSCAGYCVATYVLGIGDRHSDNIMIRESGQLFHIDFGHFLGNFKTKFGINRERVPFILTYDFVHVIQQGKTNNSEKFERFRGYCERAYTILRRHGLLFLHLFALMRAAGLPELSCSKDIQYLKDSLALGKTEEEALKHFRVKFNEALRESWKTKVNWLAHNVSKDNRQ
T1 sequence (P27986 whole entry partner): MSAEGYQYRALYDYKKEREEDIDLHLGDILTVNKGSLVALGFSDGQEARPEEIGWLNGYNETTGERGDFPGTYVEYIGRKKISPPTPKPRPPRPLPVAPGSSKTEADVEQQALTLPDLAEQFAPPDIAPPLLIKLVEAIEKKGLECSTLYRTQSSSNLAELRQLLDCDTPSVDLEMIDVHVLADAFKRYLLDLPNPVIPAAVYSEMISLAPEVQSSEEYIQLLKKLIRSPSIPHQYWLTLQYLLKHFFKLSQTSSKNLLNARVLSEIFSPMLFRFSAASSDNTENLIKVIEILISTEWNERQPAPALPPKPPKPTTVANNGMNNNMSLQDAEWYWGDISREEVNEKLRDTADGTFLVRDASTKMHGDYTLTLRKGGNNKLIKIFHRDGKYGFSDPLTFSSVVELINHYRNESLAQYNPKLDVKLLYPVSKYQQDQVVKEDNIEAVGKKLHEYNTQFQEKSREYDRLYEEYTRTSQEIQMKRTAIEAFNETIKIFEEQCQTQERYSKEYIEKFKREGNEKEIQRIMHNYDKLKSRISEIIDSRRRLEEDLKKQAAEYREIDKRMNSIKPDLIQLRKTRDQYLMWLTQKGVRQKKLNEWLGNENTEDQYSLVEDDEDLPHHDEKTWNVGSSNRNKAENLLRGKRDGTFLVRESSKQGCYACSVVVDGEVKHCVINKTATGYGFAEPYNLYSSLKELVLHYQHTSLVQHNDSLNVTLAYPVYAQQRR
T4 sequence (P48736 whole entry): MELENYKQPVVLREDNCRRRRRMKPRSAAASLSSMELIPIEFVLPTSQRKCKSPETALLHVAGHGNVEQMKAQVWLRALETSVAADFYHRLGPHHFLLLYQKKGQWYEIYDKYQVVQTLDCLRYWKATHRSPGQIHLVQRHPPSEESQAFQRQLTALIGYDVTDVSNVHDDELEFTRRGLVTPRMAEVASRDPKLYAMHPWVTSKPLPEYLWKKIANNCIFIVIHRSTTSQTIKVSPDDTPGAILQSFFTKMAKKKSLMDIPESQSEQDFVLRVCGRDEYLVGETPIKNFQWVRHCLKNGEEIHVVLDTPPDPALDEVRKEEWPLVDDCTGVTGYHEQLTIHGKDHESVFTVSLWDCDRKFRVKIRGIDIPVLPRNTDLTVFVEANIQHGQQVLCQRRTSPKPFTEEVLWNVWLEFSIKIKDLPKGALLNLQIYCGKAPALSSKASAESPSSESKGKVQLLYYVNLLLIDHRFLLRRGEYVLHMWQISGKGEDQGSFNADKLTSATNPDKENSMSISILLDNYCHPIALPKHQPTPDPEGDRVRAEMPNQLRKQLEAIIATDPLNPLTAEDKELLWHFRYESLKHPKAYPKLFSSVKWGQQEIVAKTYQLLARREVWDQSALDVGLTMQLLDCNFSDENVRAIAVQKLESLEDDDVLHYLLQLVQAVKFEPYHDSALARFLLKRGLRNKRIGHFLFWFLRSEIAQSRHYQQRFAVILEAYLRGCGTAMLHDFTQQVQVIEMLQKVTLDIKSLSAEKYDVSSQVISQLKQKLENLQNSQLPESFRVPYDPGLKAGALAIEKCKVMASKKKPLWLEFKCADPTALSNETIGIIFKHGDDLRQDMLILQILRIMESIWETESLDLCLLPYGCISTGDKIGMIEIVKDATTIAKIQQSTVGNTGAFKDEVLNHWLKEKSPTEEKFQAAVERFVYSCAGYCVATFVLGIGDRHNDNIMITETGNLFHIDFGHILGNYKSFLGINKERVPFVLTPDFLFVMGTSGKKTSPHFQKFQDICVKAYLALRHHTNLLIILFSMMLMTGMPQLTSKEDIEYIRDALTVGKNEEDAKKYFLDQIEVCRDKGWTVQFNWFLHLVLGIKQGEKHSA
T3 sequence (P42336 whole entry): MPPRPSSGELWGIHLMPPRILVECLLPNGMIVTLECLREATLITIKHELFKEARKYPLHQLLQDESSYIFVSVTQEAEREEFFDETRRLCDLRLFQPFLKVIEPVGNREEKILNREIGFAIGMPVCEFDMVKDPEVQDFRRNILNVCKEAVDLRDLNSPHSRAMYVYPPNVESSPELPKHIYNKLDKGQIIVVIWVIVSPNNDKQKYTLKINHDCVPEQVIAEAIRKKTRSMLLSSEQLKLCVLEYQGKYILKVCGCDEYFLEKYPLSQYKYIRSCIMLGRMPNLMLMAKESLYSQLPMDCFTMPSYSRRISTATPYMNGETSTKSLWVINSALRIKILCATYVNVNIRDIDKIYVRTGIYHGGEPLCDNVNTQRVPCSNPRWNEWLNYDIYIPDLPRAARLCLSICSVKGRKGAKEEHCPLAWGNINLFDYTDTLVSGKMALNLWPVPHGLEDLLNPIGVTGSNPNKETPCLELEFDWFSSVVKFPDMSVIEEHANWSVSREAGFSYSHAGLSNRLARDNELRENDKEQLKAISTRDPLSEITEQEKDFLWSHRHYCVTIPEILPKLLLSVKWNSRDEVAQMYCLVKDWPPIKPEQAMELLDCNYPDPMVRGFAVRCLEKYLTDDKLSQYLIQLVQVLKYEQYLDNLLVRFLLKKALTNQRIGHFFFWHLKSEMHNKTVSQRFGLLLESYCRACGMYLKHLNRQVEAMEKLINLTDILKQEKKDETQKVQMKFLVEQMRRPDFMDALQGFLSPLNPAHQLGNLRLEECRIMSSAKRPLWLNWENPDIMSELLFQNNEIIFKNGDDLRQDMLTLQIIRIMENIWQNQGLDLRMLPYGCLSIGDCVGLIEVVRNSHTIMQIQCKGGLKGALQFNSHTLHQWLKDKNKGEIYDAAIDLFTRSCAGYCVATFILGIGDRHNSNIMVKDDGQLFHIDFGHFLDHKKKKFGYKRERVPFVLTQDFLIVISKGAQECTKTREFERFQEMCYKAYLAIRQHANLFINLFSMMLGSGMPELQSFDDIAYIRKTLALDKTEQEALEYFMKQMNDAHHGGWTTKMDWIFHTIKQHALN
T3 sequence (P27986 whole entry partner): as the sequence (P27986 whole entry partner) above
T2 sequence (P42338 whole entry): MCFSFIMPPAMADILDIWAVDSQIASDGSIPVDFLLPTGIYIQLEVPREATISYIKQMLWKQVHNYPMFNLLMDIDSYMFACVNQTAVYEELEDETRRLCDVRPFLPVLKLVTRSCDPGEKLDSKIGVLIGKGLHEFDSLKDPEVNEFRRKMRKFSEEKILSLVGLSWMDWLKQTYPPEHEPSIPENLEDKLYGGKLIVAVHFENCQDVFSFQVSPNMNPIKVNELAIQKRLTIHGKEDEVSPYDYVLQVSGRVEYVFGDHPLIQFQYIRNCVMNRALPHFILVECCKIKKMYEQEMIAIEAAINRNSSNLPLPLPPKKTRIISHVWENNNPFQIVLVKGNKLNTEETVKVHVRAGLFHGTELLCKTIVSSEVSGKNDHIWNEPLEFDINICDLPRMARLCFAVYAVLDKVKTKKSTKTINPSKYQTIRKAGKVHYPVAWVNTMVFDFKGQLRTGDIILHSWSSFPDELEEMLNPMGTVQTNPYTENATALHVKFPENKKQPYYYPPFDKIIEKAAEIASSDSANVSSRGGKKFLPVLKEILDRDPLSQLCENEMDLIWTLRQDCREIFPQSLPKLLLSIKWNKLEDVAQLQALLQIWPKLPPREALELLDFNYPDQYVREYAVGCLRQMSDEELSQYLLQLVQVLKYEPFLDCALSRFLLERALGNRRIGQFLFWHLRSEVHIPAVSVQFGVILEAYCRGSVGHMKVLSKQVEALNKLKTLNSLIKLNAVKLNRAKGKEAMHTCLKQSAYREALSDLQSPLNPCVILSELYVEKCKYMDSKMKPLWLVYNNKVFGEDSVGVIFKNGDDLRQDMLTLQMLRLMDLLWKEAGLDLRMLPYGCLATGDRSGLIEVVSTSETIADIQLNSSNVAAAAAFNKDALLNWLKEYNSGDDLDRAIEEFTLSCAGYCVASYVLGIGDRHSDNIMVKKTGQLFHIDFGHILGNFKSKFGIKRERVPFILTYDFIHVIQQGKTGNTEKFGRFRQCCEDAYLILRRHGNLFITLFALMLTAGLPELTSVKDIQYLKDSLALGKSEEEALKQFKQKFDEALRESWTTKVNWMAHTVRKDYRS
T2 sequence (P27986 whole entry partner): as the sequence (P27986 whole entry partner) above

Consider `CC[C@H](Nc1ncnc2[nH]cnc12)c1nc2cccc(F)c2c(=O)n1-c1ccccc1` [Idelalisib, idelalisib, reference compound], for which the CC50 in the series on SupB15 (ALL) cells (SUP-B15, 48 hours, CCK-8) is greater than 20000 nM; in the series on MOLT4 (ALL) cells (MOLT-4, 48 hours, CCK-8) it was greater than 20000 nM; in the series on SUDHL5 (DLBCL) cells (SU-DHL-5, 48 hours, CCK-8) it was 3000 nM.

For the molecule `O=c1c2c(F)cccc2nc([C@@H](Nc2ncnc3nc[nH]c23)C2CC2)n1-c1ccccc1` [Formula 7, (S)-2-(((7H-purin-6-yl)amino)(cyclopropyl)methyl)-5-fluoro-3-phenylquinazolin-4(3H)-one], the IC50 against PI3K p110δ was determined as 0.5 nM; on PI3K p110β it was 105 nM; against PI3K p110α it was 206 nM; on PI3K p110γ, 25.7 nM. Also, on PI3K p110δ, the “ratio PI3Kα/PI3Kδ, as IC50 values” is on record as 412. Also, the “ratio PI3Kβ/PI3Kδ, as IC50 values” at PI3K p110δ is on record as 210. In addition, the “ratio of PI3Kγ/PI3Kδ” value at PI3K p110δ is given as 51. The CC50 in the series with SupB15 (ALL) cells (SUP-B15, 48 h) was greater than 20000 nM; in the series on MOLT4 (ALL) cells (MOLT-4, 48 h), 13700 nM; in the series on SUDHL5 (DLBCL) cells (SU-DHL-5, 48 h), 1100 nM. For the same molecule, in series [1], the “apoptosis induction compared with idelalisib (flow cytometry)” value is recorded as “more effectively induced apoptosis than the comparative drug”. Besides, in series [2], the “apoptosis compared with comparative drug idelalisib (SDS-PAGE)” value is given as “apoptosis occurred more actively”. Moreover, in series [2], the “apoptosis induction (SDS-PAGE, immunoblotting)” value is “induced apoptosis”. For the same molecule, in [3], the “cytotoxicity to HUVECs (number of viable cells)” value is “did not significantly affect the cytotoxicity”. Besides, the “inhibition of angiogenesis (tube formation) compared with idelalisib” value in [4] is recorded as “inhibited angiogenesis more than the comparative drug”. In addition, the lethal dose in the series on rats was > 1,500 mg/kg. Also, the “reduction of AKT (Ser473) phosphorylation” value in the series on Phospho-Akt (Ser473) is recorded as “induced the reduction of AKT phosphorylation”.

Take `Cc1cccc2nc([C@@H](Nc3ncnc4nc[nH]c34)C3CC3)n(-c3ccccc3)c(=O)c12` [Formula 8, (S)-2-(((7H-purin-6-yl)amino)(cyclopropyl)methyl)-5-methyl-3-phenylquinazolin-4(3H)-one]: the 50% inhibitory concentration (IC50) is 0.09 nM against PI3K p110δ, 162 nM on PI3K p110β, 134 nM at PI3K p110α and 8.6 nM against PI3K p110γ. In addition, the “ratio PI3Kα/PI3Kδ, as IC50 values” at PI3K p110δ is reported as 1,488. The “ratio PI3Kβ/PI3Kδ, as IC50 values” at PI3K p110δ is on record as 1,800. Also, the “ratio of PI3Kγ/PI3Kδ” value on PI3K p110δ amounted to 95. Also, the CC50 with SupB15 (ALL) cells (SUP-B15, 48 h) came to 16500 nM; in the series with MOLT4 (ALL) cells (MOLT-4, 48 h), 4900 nM; with SUDHL5 (DLBCL) cells (SU-DHL-5, 48 h) it was 900 nM. The “apoptosis induction compared with idelalisib (flow cytometry)” value in series [1] is recorded as “more effectively induced apoptosis than the comparative drug”. Also, the “apoptosis compared with comparative drug idelalisib (SDS-PAGE)” value in [2] is “apoptosis occurred more actively”. Moreover, the “apoptosis induction (SDS-PAGE, immunoblotting)” value in series [2] is “induced apoptosis”. Also, the “cytotoxicity to HUVECs (number of viable cells)” value in series [3] is “did not significantly affect the cytotoxicity”. Further, in series [4], the “inhibition of angiogenesis (tube formation) compared with idelalisib” value was “inhibited angiogenesis more than the comparative drug”. Also, in the series on rats, the lethal dose is 1,500 mg/kg. In the series on Phospho-Akt (Ser473), the “reduction of AKT (Ser473) phosphorylation” value was “induced the reduction of AKT phosphorylation”.
